The assay addresses Envelope glycoprotein gp160 (Human immunodeficiency virus 1, UniProt Q6QLK5). Description: cell-free HIV fusion peptide-binding blockers – biochemical, uHTS, fluorescence dequenching, […] (AID 1986).

We go through 1 compound from ChEMBL document CHEMBL1201862, “PubChem BioAssay data set” (2004).

The source made the active and inactive calls. Rule as the data show it: actives have a measured IC50 and inactives only a lower limit.

Chain of Envelope glycoprotein gp160 (Q6QLK5 whole entry, the tested form may be a part): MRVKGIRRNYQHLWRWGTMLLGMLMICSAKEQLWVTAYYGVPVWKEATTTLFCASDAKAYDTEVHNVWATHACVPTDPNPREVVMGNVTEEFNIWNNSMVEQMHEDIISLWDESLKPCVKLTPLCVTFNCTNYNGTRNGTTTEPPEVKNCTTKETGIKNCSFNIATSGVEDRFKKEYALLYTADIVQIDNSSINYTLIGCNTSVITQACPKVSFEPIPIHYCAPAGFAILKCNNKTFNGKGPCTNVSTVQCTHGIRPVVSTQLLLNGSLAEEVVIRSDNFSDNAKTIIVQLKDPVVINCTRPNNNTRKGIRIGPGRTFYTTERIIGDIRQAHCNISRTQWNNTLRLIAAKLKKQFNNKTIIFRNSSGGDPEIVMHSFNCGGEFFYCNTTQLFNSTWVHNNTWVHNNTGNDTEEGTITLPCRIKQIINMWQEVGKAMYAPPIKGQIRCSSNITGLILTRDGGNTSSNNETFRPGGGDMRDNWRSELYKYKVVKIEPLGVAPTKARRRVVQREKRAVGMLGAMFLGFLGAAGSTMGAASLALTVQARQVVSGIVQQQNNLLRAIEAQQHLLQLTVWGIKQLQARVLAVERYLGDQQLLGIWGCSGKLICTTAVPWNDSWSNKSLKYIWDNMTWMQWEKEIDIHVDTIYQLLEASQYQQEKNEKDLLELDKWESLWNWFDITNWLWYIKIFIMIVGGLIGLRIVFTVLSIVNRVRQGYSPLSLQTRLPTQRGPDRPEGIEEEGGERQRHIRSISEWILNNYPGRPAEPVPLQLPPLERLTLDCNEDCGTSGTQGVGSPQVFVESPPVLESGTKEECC

In general, IC50 refers to the concentration needed to halve the response being measured. As for `O=c1[nH]c(=S)[nH]c2c1C(c1ccc(Br)cc1)c1c([nH]c(=S)[nH]c1=O)O2`, the IC50 is 11.3 µM (active).
